Measured values from ChEMBL document CHEMBL3046731, “Synthesis and antifungal activity of 1-substitutedphenyl-3-(5-halobenzimidazol-2-yl) acylurea” (J Pestic Sci, 2010).
In brackets after ≈: the same amount, converted by molar mass.

What was measured:
[1] = tested on: Botrytis cinerea; experiment: Antifungal activity against Botryotinia fuckeliana assessed as inhibition of mycelium growth on potato dextrose agar at 25 +/- 1 degC for 96 hr; format: functional, organism-based
[2] = tested on: Sclerotinia sclerotiorum; experiment: Antifungal activity against Sclerotinia sclerotiorum assessed as inhibition of mycelium growth on potato dextrose agar at 25 +/- 1 degC for 96 hr; format: functional, organism-based

Compound | EC50 [1] | EC50 [2]
O=C(NC(=O)c1nc2cc(Cl)ccc2[nH]1)Nc1ccccc1 | 22.4 µg/mL (≈ 71.2 µM) | 11.7 µg/mL (≈ 37 µM)
O=C(NC(=O)c1nc2cc(Cl)ccc2[nH]1)Nc1ccc(F)cc1 | 8.76 µg/mL (≈ 26.3 µM) | 6.23 µg/mL (≈ 18.7 µM)
O=C(NC(=O)c1nc2cc(Cl)ccc2[nH]1)Nc1ccc(Cl)cc1 | 18.9 µg/mL (≈ 54 µM) | 6.05 µg/mL (≈ 17.3 µM)
O=C(NC(=O)c1nc2cc(Cl)ccc2[nH]1)Nc1ccc(Cl)c(Cl)c1 | 12.6 µg/mL (≈ 33 µM) | 5.5 µg/mL (≈ 14.3 µM)
O=C(NC(=O)c1nc2cc(Cl)ccc2[nH]1)Nc1ccc(Br)cc1 | 3.94 µg/mL (≈ 10 µM) | 9.28 µg/mL (≈ 23.6 µM)
O=C(NC(=O)c1nc2cc(Cl)ccc2[nH]1)Nc1ccc([N+](=O)[O-])cc1 | 30.7 µg/mL (≈ 85.4 µM) | 9.14 µg/mL (≈ 25.4 µM)
O=C(NC(=O)c1nc2cc(F)ccc2[nH]1)Nc1ccccc1 | 19.9 µg/mL (≈ 66.9 µM) | 6.55 µg/mL (≈ 22 µM)
O=C(NC(=O)c1nc2cc(F)ccc2[nH]1)Nc1ccc(F)cc1 | 10.9 µg/mL (≈ 34.6 µM) | 10.9 µg/mL (≈ 34.6 µM)
O=C(NC(=O)c1nc2cc(F)ccc2[nH]1)Nc1ccc(Cl)cc1 | 4.65 µg/mL (≈ 14 µM) | 14.6 µg/mL (≈ 43.9 µM)
O=C(NC(=O)c1nc2cc(F)ccc2[nH]1)Nc1ccc(Cl)c(Cl)c1 | 11.5 µg/mL (≈ 31.5 µM) | 9.03 µg/mL (≈ 24.6 µM)
O=C(NC(=O)c1nc2cc(F)ccc2[nH]1)Nc1ccc(Br)cc1 | 13.6 µg/mL (≈ 36.1 µM) | 8.66 µg/mL (≈ 23 µM)
O=C(NC(=O)c1nc2cc(F)ccc2[nH]1)Nc1ccc([N+](=O)[O-])cc1 | 10.4 µg/mL (≈ 30.2 µM) | 8.71 µg/mL (≈ 25.4 µM)
COC(=O)NC(=S)Nc1ccccc1NC(=S)NC(=O)OC [THIOPHANATE METHYL] | 1.03 µg/mL (≈ 3.01 µM) | 10.5 µg/mL (≈ 30.5 µM)
